Assay results as given in US10500146B2, “Composition for skin whitening comprising amorphigeni as effective ingredient” (INDUSTRY-ACADEMIC COOPERATION FOUNDATION GYEONGSANG …, priority 2015, dated 2019).

Legend:
Assay type in all cases: cell-based
[1] = test system: B16F10 mouse melanoma cells; assay: Measurement of melanin content
Procedure: Measurement of melanin content was carried out by slightly modifying the method by Yang et al. (Yang et al., 2006, Acta pharmacologica Sinica 27, 1467-73). Specifically, B16F10 cells were inoculated into a 6-well plate and cultured for 24 hours. Thereafter, the cells were treated with amorphigeni and α-MSH, each at 1 μM, followed by culture for 48 hours. The cultured cells were collected after being subjected to trypsinization and dissolution in 1 N NaOH containing DMSO for 24 hours at 65° C. By using a microplate reader (Bio-Rad), melanin content was measured at 415 nm.
In order to see whether or not amorphigeni can suppress the pigmentation induced by α-MSH (melanocyte-stimulating hormone), B16F10 cells were treated with α-MSH and amorphigeni, either separately or simultaneously, followed by incubation for 72 hours. […] Namely, it was able confirm that, by reducing melanin content, amorphigeni of the present invention can suppress […].
Furthermore, after treating B16F10 melanin cells with α-MSH, amorphigeni, and 3MA all together for 48 hours, the melanin content and oxidation level of L-DOPA were measured (***P≤0.001).
In order to confirm whether or not amorphigeni causes degradation of melanosomes which have been previously produced by α-MSH, B16F10 melanin cells were treated for 48 hours with α-MSH to have synthesis of melanosomes. Thereafter, the cells were treated with amorphigeni for 48 hours, and melanin content was measured.
Furthermore, in order to see whether or not amorphigeni causes degradation of previously produced melanosomes via autophagy, B16F10 melanin cells were treated with α-MSH for 48 hours to have synthesis of melanosome. After that, the cells were treated with 3MA as an autophagy inhibitor for 48 hours. Then, the melanin content and protein expression level of tyrosinase and PMEL were measured (ns=no significance, *P≤0.05, **P≤0.01, ***P≤0.001).

[2] = test system: B16F10 mouse melanoma cells; assay: Cell cycle measurement, PI staining, flow cytometer; settings: FIG. 3
[3] = test system: B16F10 mouse melanoma cells; assay: Cell viability (MTT analysis); settings: amorphigeni at 100 nM and 1600 nM, 24 hours, FIG. 2
Procedure: B16F10 cells were cultured for 24 hours in a 96-well plate. Thereafter, they were treated with amorphigeni at various concentrations, and cultured for 24 hours. Subsequently, a MTT solution (5 μg/mL) was added to the cells, which were then cultured for 3 hours. After removing the medium and treating the cells with DMSO, the cells were cultured for 20 minutes. By using a microplate reader (Bio-Rad), absorbance at 595 nm was measured.
In Example 1, to find out functional plant metabolites which induce depigmentation in melanin cells, amorphigeni was isolated from roots of Amorpha fruticosa (FIG. 1). To determine the cytotoxicity of amorphigeni, B16F10 cells were treated with amorphigeni at various concentrations followed by culture for 24 hours. Then, based on MTT (3-(4,5-dimethylthiazol-2-yl)-2,5-diphenyltetrazolium bromide) analysis, cell viability was determined.

C=C(CO)C1Cc2c(ccc3c2OC2COc4cc(OC)c(OC)cc4C2C3=O)O1 (stereo not drawn) [amorphigeni]
content of the previously formed melanin ([1]; α-MSH 48 hours, then amorphigeni 48 hours, FIG. 10): effectively lowered | melanin content (previously formed) ([1]; α-MSH 48 hours, then amorphigeni and 3MA 48 hours, versus α-MSH and amorphigeni, FIG. 11): increased again | melanin content ([1]; α-MSH and amorphigeni together versus α-MSH only, 72 hours, FIG. 4A): tend to decease | melanin content ([1]; α-MSH, amorphigeni and 3MA together, 48 hours, versus α-MSH and amorphigeni, FIG. 9A): increased again | cell death (cell cycle, PI staining) [2]: without inducing any cell death | cytotoxicity (cell viability, MTT) [3]: low cytotoxicity
